Key:
Assay in all cases: relative viability (nuclei count vs DMSO), 5 days (fraction); higher = more cells survive
[1] = compound: CC(C)CCN1c2nc(Nc3cc(F)c(O)c(F)c3)ncc2N(C)C(=O)C1C [BI-D1870] + CS(=O)(=O)N1CCN(Cc2cc3nc(-c4cccc5[nH]ncc45)nc(N4CCOCC4)c3s2)CC1 [Pictilisib] (partner 1 µM)
Summary of the method: (§1)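 Cells from lung cancer lines were seeded into 1536-well plates and, one day later, dosed by pin tool. Treatments were either a single drug or a fixed dose of an anchor drug with five library-drug doses (not always all listed) in √10 steps. After 5 days, nuclei were stained in a one-step fixation (final 0.05% Triton X-100, 1% formaldehyde, 1 ug/ml Hoechst) and counted on 4× images, and relative viability is the treated-to-vehicle nuclei ratio, as the median of duplicate plates.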

[2] = compound: O=c1ncccn1[C@@H]1O[C@H](CO)[C@@H](O)[C@H]1O [Zebularine] + N=C(N)NC(=N)NCCc1ccccc1 [Phenformin] (partner 250 µM)
Summary of the method: as §1

[3] = compound: CC(C)CCN1c2nc(Nc3cc(F)c(O)c(F)c3)ncc2N(C)C(=O)C1C [BI-D1870] + NC(=O)Nc1cc(-c2cccc(F)c2)sc1C(=O)N[C@H]1CCCNC1 [AZD7762] (partner 0.2 µM)
Summary of the method: as §1

[4] = compound: CC(C)CCN1c2nc(Nc3cc(F)c(O)c(F)c3)ncc2N(C)C(=O)C1C [BI-D1870] + CC(=O)Nc1cccc(-n2c(=O)n(C3CC3)c(=O)c3c(Nc4ccc(I)cc4F)n(C)c(=O)c(C)c32)c1 [Trametinib] (partner 0.02 µM)
Summary of the method: as §1

Row | Cell Line | relative viability ([1]; first compound 0.04 µM) | relative viability ([1]; first compound 0.1265 µM) | relative viability ([1]; first compound 0.4 µM) | relative viability ([1]; first compound 1.265 µM) | relative viability ([1]; first compound 4 µM) | relative viability ([2]; first compound 1 µM) | relative viability ([2]; first compound 3.162 µM) | relative viability ([2]; first compound 10 µM) | relative viability ([2]; first compound 31.62 µM) | relative viability ([2]; first compound 100 µM) | relative viability ([3]; first compound 0.04 µM) | relative viability ([3]; first compound 0.1265 µM) | relative viability ([3]; first compound 0.4 µM) | relative viability ([3]; first compound 1.265 µM) | relative viability ([3]; first compound 4 µM) | relative viability ([4]; first compound 0.04 µM) | relative viability ([4]; first compound 0.1265 µM) | relative viability ([4]; first compound 0.4 µM) | relative viability ([4]; first compound 1.265 µM) | relative viability ([4]; first compound 4 µM)
1 | NCI-H1792 | 0.248 | 0.274 | 0.24 | 0.297 | 0.227 | 0.44 | 0.281 | 0.119 | 0.258 | 0.189 | 0.728 | 0.599 | 0.72 | 0.72 | 0.527 | 0.489 | 0.349 | 0.437 | 0.567 | 0.372
2 | ChaGo-K-1 | 0.757 | 0.807 | 0.502 | 0.758 | 0.407 | 0.51 | 0.458 | 0.278 | 0.25 | 0.204 | 0.956 | 0.81 | 0.89 | 0.911 | 0.834 | 0.899 | 0.753 | 0.874 | 0.909 | 0.856
3 | LOU-NH91 | 0.413 | 0.503 | 0.504 | 0.587 | 0.44 | 0.674 | 0.717 | 0.437 | 0.693 | 0.549 | 0.846 | 0.755 | 0.73 | 0.804 | 0.624 | 0.842 | 0.762 | 0.788 | 0.761 | 0.651
4 | NCI-H2405 | 0.549 | 0.479 | 0.442 | 0.458 | 0.418 | 0.425 | 0.378 | 0.352 | 0.435 | 0.335 | 0.875 | 0.707 | 0.717 | 0.806 | 0.624 | 0.683 | 0.595 | 0.586 | 0.67 | 0.601
5 | LCLC-97TM1 | 0.183 | 0.151 | 0.175 | 0.21 | 0.153 | 0.401 | 0.413 | 0.322 | 0.256 | 0.272 | 0.194 | 0.317 | 0.174 | 0.368 | 0.335 | 0.214 | 0.181 | 0.174 | 0.221 | 0.146
6 | NCI-H596 | 0.388 | 0.402 | 0.385 | 0.428 | 0.393 | 0.844 | 0.817 | 0.579 | 0.776 | 0.807 | 1.23 | 0.9 | 1.04 | 1.16 | 0.933 | 0.95 | 0.773 | 0.846 | 0.804 | 0.762
7 | NCI-H727 | 0.425 | 0.35 | 0.354 | 0.509 | 0.366 | 0.628 | – | – | 0.693 | 0.528 | 0.575 | 0.793 | 0.569 | 0.838 | 0.515 | 0.41 | 0.406 | 0.406 | 0.438 | 0.429
8 | H3255 | 0.505 | 0.458 | 0.451 | 0.584 | 0.497 | 0.34 | 0.369 | 0.361 | 0.401 | 0.353 | 0.956 | 0.965 | 0.851 | 1.07 | 0.892 | 0.655 | 0.506 | 0.568 | 0.661 | 0.599
9 | NCI-H1437 | 0.418 | 0.348 | 0.415 | 0.408 | 0.389 | 0.333 | 0.311 | 0.229 | 0.328 | 0.376 | 1.09 | 1.06 | 1.12 | 1.1 | 1.06 | 0.556 | 0.475 | 0.494 | 0.568 | 0.398
10 | LU99A | 0.368 | 0.253 | 0.319 | 0.305 | 0.358 | 0.856 | 0.831 | 0.551 | 0.558 | 0.208 | 0.414 | 0.3 | 0.429 | 0.655 | 0.49 | 0.513 | 0.436 | 0.519 | 0.511 | 0.533
11 | HCC-827 | 0.96 | 1.05 | 1.08 | 1.14 | 0.91 | 0.486 | 0.396 | 0.45 | 0.379 | 0.278 | 0.233 | 0.295 | 0.173 | 0.223 | 0.185 | 0.551 | 0.495 | 0.463 | 0.456 | 0.432
12 | LK-2 | 0.557 | 0.484 | 0.535 | 0.619 | 0.533 | 0.759 | 0.355 | 0.289 | 0.372 | 0.259 | 0.509 | 0.473 | 0.374 | 0.536 | 0.263 | 0.864 | 0.8 | 0.786 | 0.97 | 0.649
13 | HCC-366 | 0.157 | 0.159 | 0.0753 | 0.136 | 0.174 | 0.709 | 0.613 | 0.495 | 0.503 | 0.0892 | 0.389 | 0.273 | 0.202 | 0.662 | 0.477 | 0.347 | 0.311 | 0.328 | 0.39 | 0.221
14 | BEN | 0.56 | 0.608 | 0.566 | 0.608 | 0.507 | 0.285 | 0.242 | 0.276 | 0.251 | 0.202 | 0.699 | 0.574 | 0.633 | 0.961 | 0.67 | 1.01 | 0.896 | 1.05 | 1.04 | 0.963
15 | NCI-H23 | 0.625 | 0.445 | 0.433 | 0.421 | 0.26 | 0.847 | 0.821 | 0.423 | 0.75 | 0.77 | 0.337 | 0.224 | 0.23 | 0.192 | 0.243 | 0.39 | 0.342 | 0.385 | 0.329 | 0.295
16 | NCI-H1395 | 0.684 | 0.588 | 0.587 | 0.673 | 0.507 | 0.455 | 0.454 | 0.398 | 0.361 | 0.372 | 0.398 | 0.374 | 0.42 | 0.427 | 0.454 | 1.09 | 0.972 | 1.01 | 1.17 | 0.978

From the supplement of paper PMC10307832
